Each block holds one compound with its values, some of them ahead of it.
Experiments:
Nucleic Acid [1] = test: Ratio of drug level in Sprague-Dawley rat brain to plasma assessed as (S)-6-(5-chloropyrimidin-2-yl)-3-(4-(3-(ethylsulfonyl)-2-hydroxypropoxy)-3-methoxyphenyl)pyrrolo[1,2-f][1,2,4]triazin-4(3H)-one level at 10 mg/kg, po qd; format: ADME, organism-based
Brain [2] = test: Drug concentration in Sprague-Dawley rat brain assessed as (S)-6-(5-chloropyrimidin-2-yl)-3-(4-(3-(ethylsulfonyl)-2-hydroxypropoxy)-3-methoxyphenyl)pyrrolo[1,2-f][1,2,4]triazin-4(3H)-one level at 10 mg/kg, po qd at 8 hrs; format: ADME, organism-based; conditions: in vivo, read-out: Drug uptake
Plasma [3] = test: Plasma concentration in Sprague-Dawley rat assessed as (S)-6-(5-chloropyrimidin-2-yl)-3-(4-(3-(ethylsulfonyl)-2-hydroxypropoxy)-3-methoxyphenyl)pyrrolo[1,2-f][1,2,4]triazin-4(3H)-one level at 10 mg/kg, po qd at 8 hrs; format: ADME, organism-based; conditions: in vivo
[4] = Ratio of free drug level in brain of Sprague-Dawley rat assessed as 6-(5-chloropyridin-2-yl)-3-(4-((3,3-difluoro-1-hydroxycyclobutyl)methoxy)-3-methoxyphenyl)pyrrolo[1,2-f][1,2,4]triazin-4(3H)-one level at 10 mg/kg, po to Ki for rat MCHR1; format: ADME, organism-based; conditions: in vivo
Brain [5] = test: Free drug level in Sprague-Dawley rat brain assessed as 6-(5-chloropyridin-2-yl)-3-(4-((3,3-difluoro-1-hydroxycyclobutyl)methoxy)-3-methoxyphenyl)pyrrolo[1,2-f][1,2,4]triazin-4(3H)-one level at 3 mg/kg, po qd at 20 hrs; format: ADME, organism-based; conditions: in vivo
Brain [6] = test: Free drug level in Sprague-Dawley rat brain assessed as 6-(5-chloropyridin-2-yl)-3-(4-((3,3-difluoro-1-hydroxycyclobutyl)methoxy)-3-methoxyphenyl)pyrrolo[1,2-f][1,2,4]triazin-4(3H)-one level at 10 mg/kg, po qd at 20 hrs; format: ADME, organism-based; conditions: in vivo
Rattus norvegicus [7] = test: Antiobesity activity in Sprague-Dawley rat assessed as body weight reduction at 3 mg/kg, po qd after 4 days relative to control; format: functional; conditions: 96 h
Plasma [8] = test: Plasma concentration in Sprague-Dawley rat assessed as 6-(5-chloropyridin-2-yl)-3-(4-((3,3-difluoro-1-hydroxycyclobutyl)methoxy)-3-methoxyphenyl)pyrrolo[1,2-f][1,2,4]triazin-4(3H)-one level at 10 mg/kg, po qd at 8 hrs; format: ADME, organism-based; conditions: in vivo
Rattus norvegicus [9] = test: Antiobesity activity in Sprague-Dawley rat assessed as body weight reduction at 30 mg/kg, po qd after 4 days relative to control; format: functional; conditions: 96 h
[10] = Ratio of free drug level in brain of Sprague-Dawley rat assessed as 6-(5-chloropyridin-2-yl)-3-(4-((3,3-difluoro-1-hydroxycyclobutyl)methoxy)-3-methoxyphenyl)pyrrolo[1,2-f][1,2,4]triazin-4(3H)-one level at 3 mg/kg, po to Ki for rat MCHR1; format: ADME, organism-based; conditions: in vivo
Brain [11] = test: Free drug level in Sprague-Dawley rat brain assessed as 6-(5-chloropyridin-2-yl)-3-(4-((3,3-difluoro-1-hydroxycyclobutyl)methoxy)-3-methoxyphenyl)pyrrolo[1,2-f][1,2,4]triazin-4(3H)-one level at 30 mg/kg, po qd at 20 hrs; format: ADME, organism-based; conditions: in vivo
Nucleic Acid [12] = test: Ratio of drug level in Sprague-Dawley rat brain to plasma assessed as 6-(5-chloropyridin-2-yl)-3-(4-((3,3-difluoro-1-hydroxycyclobutyl)methoxy)-3-methoxyphenyl)pyrrolo[1,2-f][1,2,4]triazin-4(3H)-one level at 10 mg/kg, po qd; format: ADME, organism-based
Rattus norvegicus [13] = test: Antiobesity activity in Sprague-Dawley rat assessed as body weight reduction at 10 mg/kg, po qd after 4 days relative to control; format: functional; conditions: 96 h
Brain [14] = test: Drug concentration in Sprague-Dawley rat brain assessed as 6-(5-chloropyridin-2-yl)-3-(4-((3,3-difluoro-1-hydroxycyclobutyl)methoxy)-3-methoxyphenyl)pyrrolo[1,2-f][1,2,4]triazin-4(3H)-one level at 3 mg/kg, po qd at 20 hrs; format: ADME, organism-based; conditions: in vivo, read-out: Drug uptake
Plasma [15] = test: Fraction unbound in Sprague-Dawley rat plasma assessed as 6-(5-chloropyridin-2-yl)-3-(4-((3,3-difluoro-1-hydroxycyclobutyl)methoxy)-3-methoxyphenyl)pyrrolo[1,2-f][1,2,4]triazin-4(3H)-one level; format: ADME, cell-free
Brain [16] = test: Drug concentration in Sprague-Dawley rat brain assessed as 6-(5-chloropyridin-2-yl)-3-(4-((3,3-difluoro-1-hydroxycyclobutyl)methoxy)-3-methoxyphenyl)pyrrolo[1,2-f][1,2,4]triazin-4(3H)-one level at 30 mg/kg, po qd at 20 hrs; format: ADME, organism-based; conditions: in vivo, read-out: Drug uptake
Brain [17] = test: Drug concentration in Sprague-Dawley rat brain assessed as 6-(5-chloropyridin-2-yl)-3-(4-((3,3-difluoro-1-hydroxycyclobutyl)methoxy)-3-methoxyphenyl)pyrrolo[1,2-f][1,2,4]triazin-4(3H)-one level at 10 mg/kg, po qd at 20 hrs; format: ADME, organism-based; conditions: in vivo, read-out: Drug uptake
[18] = Ratio of free drug level in brain of Sprague-Dawley rat assessed as 6-(5-chloropyridin-2-yl)-3-(4-((3,3-difluoro-1-hydroxycyclobutyl)methoxy)-3-methoxyphenyl)pyrrolo[1,2-f][1,2,4]triazin-4(3H)-one level at 30 mg/kg, po to Ki for rat MCHR1; format: ADME, organism-based; conditions: in vivo
Brain [19] = test: Drug concentration in Sprague-Dawley rat brain assessed as 6-(5-chloropyridin-2-yl)-3-(4-((3,3-difluoro-1-hydroxycyclobutyl)methoxy)-3-methoxyphenyl)pyrrolo[1,2-f][1,2,4]triazin-4(3H)-one level at 10 mg/kg, po qd at 8 hrs; format: ADME, organism-based; conditions: in vivo, read-out: Drug uptake
Nucleic Acid [20] = test: Ratio of drug level in Sprague-Dawley rat brain to plasma assessed as 6-(5-chloropyrimidin-2-yl)-3-(4-(2-hydroxy-2-methylpropoxy)-3-methoxyphenyl)pyrrolo[1,2-f][1,2,4]triazin-4(3H)-one level at 5 mg/kg, po qd; format: ADME, organism-based
Plasma [21] = test: Plasma concentration in Sprague-Dawley rat assessed as 6-(5-chloropyrimidin-2-yl)-3-(4-(2-hydroxy-2-methylpropoxy)-3-methoxyphenyl)pyrrolo[1,2-f][1,2,4]triazin-4(3H)-one level at 5 mg/kg, po qd at 8 hrs; format: ADME, organism-based; conditions: in vivo
Brain [22] = test: Drug concentration in Sprague-Dawley rat brain assessed as 6-(5-chloropyrimidin-2-yl)-3-(4-(2-hydroxy-2-methylpropoxy)-3-methoxyphenyl)pyrrolo[1,2-f][1,2,4]triazin-4(3H)-one level at 5 mg/kg, po qd at 8 hrs; format: ADME, organism-based; conditions: in vivo, read-out: Drug uptake
Brain [23] = test: Drug concentration in Sprague-Dawley rat brain assessed as (S)-6-(5-chloropyridin-2-yl)-3-(4-(3-(ethylsulfonyl)-2-hydroxypropoxy)-3-methoxyphenyl)pyrrolo[1,2-f][1,2,4]triazin-4(3H)-one level at 10 mg/kg, po qd at 8 hrs; format: ADME, organism-based; conditions: in vivo, read-out: Drug uptake
Plasma [24] = test: Plasma concentration in Sprague-Dawley rat assessed as (S)-6-(5-chloropyridin-2-yl)-3-(4-(3-(ethylsulfonyl)-2-hydroxypropoxy)-3-methoxyphenyl)pyrrolo[1,2-f][1,2,4]triazin-4(3H)-one level at 10 mg/kg, po qd at 8 hrs; format: ADME, organism-based; conditions: in vivo
Nucleic Acid [25] = test: Ratio of drug level in Sprague-Dawley rat brain to plasma assessed as (S)-6-(5-chloropyridin-2-yl)-3-(4-(3-(ethylsulfonyl)-2-hydroxypropoxy)-3-methoxyphenyl)pyrrolo[1,2-f][1,2,4]triazin-4(3H)-one level at 10 mg/kg, po qd; format: ADME, organism-based

BPR (Nucleic Acid [1]): 0.03 | concentration (Brain [2]): 0.125 µM | concentration (Plasma [3]): 3.96 µM
SMILES: CCS(=O)(=O)C[C@H](COc1ccc(-n2cnn3cc(-c4ncc(Cl)cn4)cc3c2=O)cc1OC)OC(=O)CN

Ratio [4]: <= 2.5 | Drug uptake(free) (Brain [5]): 63.9 nM | Drug uptake(free) (Brain [6]): 616 nM | concentration (Plasma [8]): 5.59 µM | Ratio [10]: <= 0.6 | Drug uptake(free) (Brain [11]): 624 nM | BPR (Nucleic Acid [12]): 0.6 | concentration (Brain [14]): 3.87 µM | Fu (Plasma [15]): <= 0.1% | concentration (Brain [16]): 23.9 µM | concentration (Brain [17]): 16 µM | Ratio [18]: <= 3.7 | concentration (Brain [19]): 3.59 µM
SMILES: COc1cc(-n2cnn3cc(-c4ccc(Cl)cn4)cc3c2=O)ccc1OCC1(OC(=O)CN)CC(F)(F)C1
inhibition in vivo at 3 mg/kg (Rattus norvegicus [7]): 1.6% | inhibition in vivo at 30 mg/kg (Rattus norvegicus [9]): 13% | inhibition in vivo at 10 mg/kg (Rattus norvegicus [13]): 4.4%

BPR (Nucleic Acid [20]): 0.5 | concentration (Plasma [21]): 2.71 µM | concentration (Brain [22]): 1.43 µM
SMILES: COc1cc(-n2cnn3cc(-c4ncc(Cl)cn4)cc3c2=O)ccc1OCC(C)(C)OC(=O)CN

concentration (Brain [23]): 0.401 µM | concentration (Plasma [24]): 15.6 µM | BPR (Nucleic Acid [25]): 0.03
SMILES: CCS(=O)(=O)C[C@H](COc1ccc(-n2cnn3cc(-c4ccc(Cl)cn4)cc3c2=O)cc1OC)OC(=O)CN

Reference: ChEMBL document CHEMBL3616440, “Non-basic azolotriazinone MCHR1 antagonists for the treatment of obesity: An empirical brain-exposures-driven candidate selection for in vivo efficacy studies” (Bioorg Med Chem Lett, 2015)
